Literature values, collected in patent US20080255132A1, “Combination Therapy Comprising the Use of Et-743 and Paclitaxel for Treating Cancer” (priority 2003, published 2008).

Tests used:
[1] = tested on: human tumor xenografts, including melanoma and ovarian and breast carcinoma; details: human tumor xenografts grown in athymic mice
[2] = tested on: sarcoma and breast and ovarian carcinoma; details: phase I, 1-, 3-, 24-, 72-hour i.v. infusion and 1 hour daily x5 schedules

COc1cc2c(cc1O)CCN[C@]21CS[C@@H]2c3c(OC(C)=O)c(C)c4c(c3[C@H](COC1=O)N1[C@@H]2[C@H]2c3c(cc(C)c(OC)c3O)C[C@@H]([C@@H]1O)N2C)OCO4 [ET-743, ecteinascidin 743]
Antineoplastic activity [1]: potent antineoplastic activity
Responses [2]: Promising responses
